In US20140148493A1, “Agricultural and Horticultural Insecticide Composition and Method for Using the Same” (NIHON NOHYAKU CO., LTD., priority 2011, published 2014):

Key:
Format in all cases: in vivo
Plutella xylostella = test: Field test of insecticidal effect on Plutella xylostella (foliar application, Chinese kale); conditions: flubendiamide 11.3 and/or tolfenpyrad 60 g a.i./ha; for Control effect (%) 4DAT5 / Number of larvae per plant 4DAT5: 4 days after the 5th treatment; for Number of larvae per plant 4DAT5 / Number of larvae per plant 4DAT6: 4-day intervals, Chinese kale field; for Control effect (%) 4DAT6 / Number of larvae per plant 4DAT6: 4 days after the 6th treatment
Method: (§1) In an experimental Chinese kale (Brassica oleracea var. acephala) field (sized 4 m×5 m and planted with 800 plants per plot), foliar application was conducted with a water-diluted agrochemical solution (an amount equivalent to 750 L/ha) containing a predetermined dose of a flubendiamide 20% water-dispersible granule and/or a predetermined dose of a tolfenpyrad 15% emulsifiable concentrate at 4-day intervals, 8 times in total. In plots of Plutella xylostella or Spodoptera litura, 20 plants per plot were chosen at random, the number of surviving larvae was measured before the agrochemical treatment, at 4 days after the 5th agrochemical treatment and at 4 days after the 6th agrochemical treatment. With reference to the number of larvae before the agrochemical treatment, the control effect was calculated according to the formula shown below. In addition, the expected value for the control effect of the mixed use was calculated according to Colby's equation shown below. […] As for plots of Spodoptera exigua, the calculation was performed based on the measurements at 4 days after the 7th agrochemical treatment and at 4 days after the 8th agrochemical treatment.
(§2) Control effect=100−{(Ta×Cb)/(Tb×Ca)}×100
(§3) Ta=the number of larvae after the agrochemical treatment in a treatment plot
(§4) Tb=the number of larvae before the agrochemical treatment in a treatment plot
(§5) Ca=the number of larvae after the agrochemical treatment in a non-treatment plot
(§6) Cb=the number of larvae before the agrochemical treatment in a non-treatment plot
(§7) E(expected value)=(X+Y)−(X−Y/100)
(§8) X=the control effect of flubendiamide alone
(§9) Y=the control effect of tolfenpyrad alone
(§10) In each table, 4DAT5, 4DAT6, 4DAT7 and 4DAT8 are as defined below, and the a. i. stands for active ingredient.
(§11) 4DAT5: the measurement at 4 days after the 5th agrochemical treatment
(§12) 4DAT6 the measurement at 4 days after the 6th agrochemical treatment

Spodoptera exigua = test: Field test of insecticidal effect on Spodoptera exigua (foliar application, Chinese kale); conditions: flubendiamide 11.3 and/or tolfenpyrad 60 g a.i./ha; for Control effect (%) 4DAT7 / Number of larvae per plant 4DAT7: 4 days after the 7th treatment; for Number of larvae per plant 4DAT7 / Number of larvae per plant 4DAT8: 4-day intervals, Chinese kale field; for Control effect (%) 4DAT8 / Number of larvae per plant 4DAT8: 4 days after the 8th treatment
Method: as §1, §2, §3, §4, §5, §6, §7, §8, §9, §10
4DAT7 the measurement at 4 days after the 7th agrochemical treatment
4DAT8 the measurement at 4 days after the 8th agrochemical treatment

Spodoptera litura = test: Field test of insecticidal effect on Spodoptera litura (foliar application, Chinese kale); conditions: flubendiamide 11.3 and/or tolfenpyrad 60 g a.i./ha; for Control effect (%) 4DAT5 / Number of larvae per plant 4DAT5: 4 days after the 5th treatment; for Number of larvae per plant 4DAT5 / Number of larvae per plant 4DAT6: 4-day intervals, Chinese kale field; for Control effect (%) 4DAT6 / Number of larvae per plant 4DAT6: 4 days after the 6th treatment
Method: as §1, §2, §3, §4, §5, §6, §7, §8, §9, §10, §11, §12

Compound | Control effect (%) 4DAT5 (Plutella xylostella) [%] | Number of larvae per plant 4DAT5 (Plutella xylostella) | Control effect (%) 4DAT6 (Plutella xylostella) [%] | Number of larvae per plant 4DAT6 (Plutella xylostella) | Control effect (%) 4DAT7 (Spodoptera exigua) [%] | Number of larvae per plant 4DAT7 (Spodoptera exigua) | Control effect (%) 4DAT8 (Spodoptera exigua) [%] | Number of larvae per plant 4DAT8 (Spodoptera exigua) | Control effect (%) 4DAT5 (Spodoptera litura) [%] | Number of larvae per plant 4DAT5 (Spodoptera litura) | Control effect (%) 4DAT6 (Spodoptera litura) [%] | Number of larvae per plant 4DAT6 (Spodoptera litura)
Cc1cc(C(F)(C(F)(F)F)C(F)(F)F)ccc1NC(=O)c1cccc(I)c1C(=O)NC(C)(C)CS(C)(=O)=O [Flubendiamide, 3-iodo-N′-(2-mesyl-1,1-dimethylethyl)-N-{4-[1,2,2,2-tetrafluoro-1-(trifluoromethyl)ethyl]-o-tolyl}phthalamide] | 53.5 | 0.24 | 70.0 | 0.13 | 37.6 | 0.03 | 62.2 | 0.04 | 3.9 | 0.43 | 37.8 | 0.31
CCc1nn(C)c(C(=O)NCc2ccc(Oc3ccc(C)cc3)cc2)c1Cl [Tolfenpyrad, 4-chloro-3-ethyl-1-methyl-N-[4-(p-tolyloxy)benzyl]pyrazole-5-carboxamide] | 29.4 | 0.38 | 58.0 | 0.19 | 0 | 0.06 | 0 | 0.13 | 0 | 0.25 | 0 | 0.53
